This passage reports IC50 results from BindingDB's records for doi:10.1021/acs.jmedchem.6b00594 (Duquesne University, 2016).

What is called pIC50 is the negative decadic logarithm of the IC50, by convention in mol/L.

Assay [1] is described as follows: Inhibition of human RFC expressed in Chinese hamster PC43-10 cells assessed as antiproliferative activity measured as reduction in cell viability after 96 hrs by Cell-Titer Blue fluorescence analysis.
Assay [2] in a line: Inhibition of human FR-beta receptor expressed in Chinese hamster D4 cells assessed as antiproliferative activity measured as reduction in cell viability after 96 hrs by Cell-Titer Blue fluorescence analysis.
Assay [3] can be described thus: Inhibition of human FR-alpha receptor expressed in Chinese hamster RT16 cells assessed as antiproliferative activity measured as reduction in cell viability after 96 hrs by Cell-Titer Blue fluorescence analysis.
Assay [4] in a line: Inhibition of human PCFT expressed in Chinese hamster R2/PCFT4 cells assessed as antiproliferative activity measured as reduction in cell viability after 96 hrs by Cell-Titer Blue fluorescence analysis.

pIC50: −log10 of the molar value.

With `Nc1nc2[nH]c(CCN(C(=O)C(F)(F)F)c3ccc(C(=O)N[C@@H](CCC(=O)O)C(=O)O)cc3)cc2c(=O)[nH]1`, the pIC50 in assay [1] was 6.11; in assay [2], 9.35; in assay [3], 8.96; in assay [4], 6.96.

Take `Nc1nc2[nH]c(CCNc3ccc(C(=O)N[C@@H](CCC(=O)O)C(=O)O)cc3)cc2c(=O)[nH]1`: the negative-log IC50 (pIC50) is 6.29 in assay [1], 9.21 in assay [2], 8.52 in assay [3] and 7.06 in assay [4].

For `Nc1nc2[nH]c(CCSc3ccc(C(=O)N[C@@H](CCC(=O)O)C(=O)O)cc3)cc2c(=O)[nH]1`, the pIC50 in assay [1] is below 6.00; in assay [2] it was 9.47; in assay [3] it was 9.29; in assay [4] it was 6.57.

In the case of `CC(=O)N(CCc1cc2c(=O)[nH]c(N)nc2[nH]1)c1ccc(C(=O)N[C@@H](CCC(=O)O)C(=O)O)cc1`, the pIC50 is 6.09 in assay [1], 8.80 in assay [2], 8.31 in assay [3] and 7.09 in assay [4].

With `Nc1nc2[nH]c(CCN(C=O)c3ccc(C(=O)N[C@@H](CCC(=O)O)C(=O)O)cc3)cc2c(=O)[nH]1`, the negative logarithm of the IC50 (pIC50) in assay [1] is 6.19; in assay [2], 9.28; in assay [3], 8.52; in assay [4], 7.05.

For `Nc1nc2[nH]c(CCOc3ccc(C(=O)N[C@@H](CCC(=O)O)C(=O)O)cc3)cc2c(=O)[nH]1`, the pIC50 in assay [1] is 6.19; in assay [2] it was 8.59; in assay [3] it was 8.72; in assay [4], 7.24.
